# Reference: US20260183276A1, “miRNA DYSREGULATION CORRECTION AS A STRATEGY TO TREAT HUNTINGTON'S DISEASE” (The Chinese University of Hong Kong, priority 2022, published 2026)
# “Also recorded” adds a separate entry of the source.
# Tests used:
# [1] = test system: TAK1-MKK4-JNK pro-apoptotic signaling in EGFPCAG78-expressing cells; experiment: Western blotting of TAK1-MKK4-JNK caspase cascade, EGFPCAG78-expressing cells; assay type: cell-based; details: for TAB2 expression / TAB1 expression / TAK1-triggered cell death: EGFPCAG78-transfected cells; for EGFPCAG78-induced TAK1 functional deregulation: FIG. 9B; for TAK1-triggered cell death: FIG. 9A
# Description: (§1) SK-N-MC cells (ATCC) were cultured in DMEM (GE Healthcare BioSciences) supplemented with 10% fetal bovine serum and 1% penicillin-streptomycin. Cells were maintained in a 37° C. humidified cell culture incubator supplemented with 5% CO2. Plasmid DNA and siRNA/synthetic miRNA transfection was performed using Lipofectamine 2000 (Thermo Fisher Scientific) and Lipofectamine RNAiMAX (Thermo Fisher Scientific), respectively.
# (§2) Proteins were extracted from SK-N-MC cells or mouse primary cortical neurons using SDS sample buffer. For protein extraction from mice, half of the brain was homogenized in protein lysis buffer (50 mM Tris-HCl, pH 7.6, 150 mM NaCl, 10% NP40, 5% sodium deoxycholate). All protein samples were boiled at 99° C. for 10 minutes, prior to Western blotting. Primary antibodies used were anti-PAPD5 (PA5-46747, 1:1,000) from Invitrogen; anti-p-TAK1 (4536, 1:1,000), anti-t-TAK1 (4505, 1:2,000), anti-p-MKK4 (9156, 1:1,000), anti-t-MKK4 (9152, 1:2,000), anti-p-MKK7 (4171, 1:1,000), anti-t-MKK7 (4172, 1:2,000), anti-p-JNK (9251, 1:2,000), anti-t-JNK (9252, 1:2,000), anti-TAB1 (3226, 1:2,000), anti-TAB2 (3745, 1:2,000), anti-cleaved caspase 3 (9664, 1:500) and anti-myc (2276, 1:2,000) from Cell Signaling Technology; antipolyQ (P1874, 1:1,000) and anti-HA (H3663, 1:2,000) from Sigma-Aldrich; anti-YY1 (ab109237, 1:2000) and anti-β-tubulin (ab6046, 1:2,000) from Abcam, and anti-GFP (JL-8, 1:4,000) from Clontech. Secondary antibodies used were goat anti-rabbit (11035-045, 1:5,000) and goat anti-mouse (115-035-062, 1:5,000) from Jackson ImmunoResearch.
# [2] = biological target: PAPD5 (Homo sapiens, UniProt Q8NDF8); details: cited from earlier work
# PAPD5, sequence (Q8NDF8 whole entry): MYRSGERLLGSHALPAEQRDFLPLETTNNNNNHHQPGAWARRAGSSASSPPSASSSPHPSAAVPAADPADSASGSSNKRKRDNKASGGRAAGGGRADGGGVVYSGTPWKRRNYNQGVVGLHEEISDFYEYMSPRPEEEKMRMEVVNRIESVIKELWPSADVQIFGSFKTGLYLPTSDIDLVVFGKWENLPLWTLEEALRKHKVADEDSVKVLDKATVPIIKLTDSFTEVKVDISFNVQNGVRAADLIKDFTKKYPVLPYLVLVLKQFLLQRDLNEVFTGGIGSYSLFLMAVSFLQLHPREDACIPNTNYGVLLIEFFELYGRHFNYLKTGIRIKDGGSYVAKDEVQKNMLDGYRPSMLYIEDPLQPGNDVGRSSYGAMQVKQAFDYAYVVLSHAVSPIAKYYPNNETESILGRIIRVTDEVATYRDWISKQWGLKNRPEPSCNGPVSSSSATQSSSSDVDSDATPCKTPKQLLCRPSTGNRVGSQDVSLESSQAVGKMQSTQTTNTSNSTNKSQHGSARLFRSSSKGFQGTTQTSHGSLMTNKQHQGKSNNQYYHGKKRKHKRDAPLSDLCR
# [3] = test system: JNK phosphorylation and caspase 3 cleavage in EGFP-Htt1-550CAG89-expressing neurons; experiment: Western blotting, EGFP-Htt1-550CAG89-expressing primary cortical neurons; assay type: cell-based, mouse
# Description: E16-embryos of C57BL6J wildtype mice were sacrificed to obtain the mouse primary cortical neurons as previously described (Peng et al., 2021). In brief, cortical lobes were dissected out in ice-cold PBS-glucose. Meninges were removed and cortices were digested in trypsin solution. Primary cortical neurons were cultured on poly-[…]-coated (0.05 mg/ml) glass coverslips in 24-well plates (50,000 cells per well) and maintained in a 37° C. humidified cell culture incubator supplemented with 5% CO2. Prior to transfection and drug treatment, neurons were cultured for 5 days. Mature primary neurons were transfected with DNA constructs together with Lipofectamine LTX and Plus Reagent (Thermo Fisher Scientific). Following the manufacturer's protocol, at 4 hours post-transfection culture medium was refreshed and 400 nM of BCH001 was added to the medium. Neurons were further incubated for 72 hours to allow recovery and ectopic expression. Proteins were extracted from SK-N-MC cells or mouse primary cortical neurons using SDS sample buffer. For protein extraction from mice, half of the brain was homogenized in protein lysis buffer (50 mM Tris-HCl, pH 7.6, 150 mM NaCl, 10% NP40, 5% sodium deoxycholate). All protein samples were boiled at 99° C. for 10 minutes, prior to Western blotting. […]
# [4] = test system: EGFP-Htt1-550CAG89-expressing mouse primary cortical neurons; experiment: Immunocytochemistry of synaptic markers and neurites, EGFP-Htt1-550CAG89-expressing primary cortical neurons; assay type: cell-based; details: 400 nM BCH001, 72 hours
# Description: E16-embryos of C57BL6J wildtype mice were sacrificed to obtain the mouse primary cortical neurons as previously described (Peng et al., 2021). In brief, cortical lobes were dissected out in ice-cold PBS-glucose. Meninges were removed and cortices were digested in trypsin solution. Primary cortical neurons were cultured on poly-[…]-coated (0.05 mg/ml) glass coverslips in 24-well plates (50,000 cells per well) and maintained in a 37° C. humidified cell culture incubator supplemented with 5% CO2. Prior to transfection and drug treatment, neurons were cultured for 5 days. Mature primary neurons were transfected with DNA constructs together with Lipofectamine LTX and Plus Reagent (Thermo Fisher Scientific). Following the manufacturer's protocol, at 4 hours post-transfection culture medium was refreshed and 400 nM of BCH001 was added to the medium. Neurons were further incubated for 72 hours to allow recovery and ectopic expression. Neurons were fixed with 4% paraformaldehyde for 10 minutes, followed by permeabilization (0.2% Triton X-100) for another 10 minutes and blocking (1% BSA) for 1 hour at room temperature. Primary antibody incubation was performed in 1% BSA overnight at 4° C. After washing steps, neurons were incubated with secondary antibodies in 1% BSA in dark for 1 hour at room temperature. Samples were counterstained with 1 μg/ml 4,6-diamidino-2-phenylindole (DAPI) solution for nuclei visualization and then washed with PBS, followed by mounting and examined under a confocal microscope (Leica TCS SP8 high speed imaging system). To examine the neurite arborization and quantify the synaptic markers, primary neurons were stained with MAP2 (1:10,000; ab5392, Abcam) and Synapsin I (1:200; ab8, Abcam), Bassoon (1:200; ab110426, Abcam) or Homer1 (1:200; ab97593, Abcam) antibodies. The z stacked maximal projected images were used for statistical analyses using Photoshop 2020 (Adobe Systems). Ten EGFP-positive neurons per replica were used for the statistical analysis.
# [5] = test system: TAK1-MKK4-JNK pro-apoptotic signaling in PAPD5-overexpressing cells; experiment: Western blotting of TAK1-MKK4-JNK caspase cascade, PAPD5-overexpressing cells; assay type: cell-based
# Description: as §1, §2
# [6] = test system: TAK1-MKK4-JNK pro-apoptotic signaling in EGFP-Htt1-550CAG89-expressing cells; experiment: Western blotting of TAK1-MKK4-JNK caspase cascade, EGFP-Htt1-550CAG89-expressing SK-N-MC cells; assay type: cell-based
# Description: as §1, §2
# [7] = test system: PAPD5-overexpressing cells; experiment: LDH cell death assay, PAPD5-overexpressing cells; assay type: cell-based
# Description: as §1
# (§3) The LDH assay on SK-N-MC cells were performed according to manufacturer's instructions (CytoTox 96 Non-Radioactive Cytotoxicity Assay Kit, Promega).
# [8] = test system: EGFP-Htt1-550CAG89-expressing SK-N-MC cells; experiment: LDH cell death assay, EGFP-Htt1-550CAG89-expressing SK-N-MC cells; assay type: cell-based
# Description: as §1, §3
# [9] = test system: HttQ93-induced retinal neurodegeneration; experiment: Pseudopupil assay, HttQ93 Drosophila model of Huntington's Disease; assay type: in vivo; details: 10 uM BCH001, gmr-GAL4 driver
# Description: Fly lines gmr-Gal4 (Ellis et al., 1993), UAS-DsRedCAG0/100 (Li et al., 2008), UAS-Htt exon1Q93 (Steffan et al., 2001), UAS-flMJDQ27/84 (Warrick et al., 2005), UASCTG60/480 (Garcia-Lopez et al., 2008) and UAS-EGFP-CGG90 (Jin et al., 2003) were described previously. The UAS-PAPD5 dsRNA line (GD19799, GD41096, and GD45261) was obtained from Vienna Drosophila RNAi Center. All flies were maintained in cornmeal culture medium and genetic crosses were set up in a 21.5° C. incubator (LMS, Sevenoaks, Kent, UK).
# 12 days-post-eclosion (dpe) adult flies were used for the pseudopupil assay as described previously (Wong et al., 2008). Each fly eye was examined using an Olympus CX31 stereomicroscope. The images of ommatidia were captured using a SPOT Insight CCD camera (Diagnostic instruments Inc., Sterling Heights, MI, USA), and all images were processed using the SPOT Advanced software (Version 5.2; Diagnostic instruments Inc., Sterling Heights, MI, USA) and Photoshop 2020 (Adobe Systems). Two hundred ommatidia collected from 20 individual fly eyes were examined for each condition and used for statistical analysis. The average number of rhabdomeres per ommatidia was presented as the indication of ommatidial integrity.
# [10] = test system: A-beta peptide toxicity; experiment: A-beta1-42 peptide transgenic Drosophila model of Alzheimer's Disease; assay type: in vivo; details: A-beta1-42 transgenic Drosophila
# [11] = test system: EGFPCAG78-expressing SK-N-MC cells; experiment: LDH cell death assay, EGFPCAG78-expressing SK-N-MC cells; assay type: cell-based
# Description: as §1, §3
# [12] = test system: telomerase RNA component (TERC); details: cited from earlier work
molecule,measurement,setting,value
"miR-22-5p: miRNA (IDT), SEQ ID NO: 14, predicted to target TAB2 (AGUUCUUCAGUGGCAAGCUUUA; listed as RNA, chemistry not given here)",TAB2 expression,[1],capable of silencing
same,EGFPCAG78-induced TAK1 functional deregulation,[1],inhibiting
"miR-331-3p: miRNA (IDT), SEQ ID NO: 12, predicted to target TAB1 (GCCCCUGGGCCUAUCCUAGAA; listed as RNA, chemistry not given here)",TAB1 expression,[1],able to silence
same,TAK1-triggered cell death,[1],inhibit
CCOC(=O)c1cnc2ccc(OC(F)(F)F)cc2c1Nc1ccccc1C(=O)O [BCH001],PAPD5 enzyme activity,[2],specifically target
same,JNK phosphorylation,[3],attenuated
same,caspase 3 cleavage,[3],attenuated
same,"neurites (primary, secondary, tertiary)",[4],recovered to their control levels
same,puncta number of Bassoon,[4],restoration
same,puncta number of Homer1,[4],restoration
same,puncta number of Synapsin I,[4],restoration
same,synaptic defects,[4],fully rescued
same,TAK1/MKK4/JNK phosphorylation,[5],suppressed in a dose-dependent manner
same,caspase 3 cleavage,[5],suppressed in a dose-dependent manner
same,caspase 3 cleavage,[6],suppressed
same,"phosphorylation levels of TAK1, MKK4 and JNK",[6],reduced
same,PAPD5-induced cell death,"[7]; 200 nM BCH001, FIG. 4A",sufficient to suppress
same,cell death induced by the compound,"[7]; 400 nM, FIG. 4A",does not induce cell death
same,PAPD5-induced cell death,[7]; PAPD5 overexpression,suppressed in a dose-dependent manner
same,EGFP-Htt1-550CAG89-induced cell death,[8],rescued
same,HttQ93-induced retinal neurodegeneration (rhabdomere numbers),[9],marked suppression
same,A-beta peptide toxicity (retinal degeneration),[10],capable of suppressing
same,mutant CAG RNA (EGFPCAG78)-induced cell death,[11],completely suppressed
same,IC50,"[11]; Homo sapiens, FIG. 11, read-out: IC50 of suppression of EGFPCAG78-induced cell death",14.7 nM
same,3' adenylation of telomerase RNA component (TERC),[12],reduced
COc1cc(O)c2c(c1)/C=C/C[C@H](O)[C@H](O)C(=O)/C=C\C[C@H](C)OC2=O [5Z-7-oxozeaenol],"TAK1-MKK4-JNK pro-apoptotic signaling (phosphorylation of TAK1, MKK4, JNK, caspase 3 cleavage)",[1]; EGFPCAG78-expressing cells,suppressed
same,TAK1/MKK4/JNK phosphorylation,[5],dose-dependent decrease
same,caspase 3 cleavage,[5],dose-dependent decrease
same,caspase 3 cleavage,[6],rescued
same,"phosphorylation levels of TAK1, MKK4 and JNK",[6],rescued
same,PAPD5-induced cell death,[7]; PAPD5 overexpression,suppressed
same,EGFP-Htt1-550CAG89-induced cell death,[8],rescued
same,mutant CAG RNA (EGFPCAG78)-induced cell death,[11],rescued
COCCCOc1cc2c(cc1OC)-c1cc(=O)c(C(=O)O)cn1[C@H](C(C)C)C2 [RG7834],A-beta peptide toxicity (retinal degeneration),[10],capable of suppressing
"miR-504: miRNA targeting TAB1, expressed from construct pRI-CMV/GFP-miR-504 (mimic sequence SEQ ID NO: 3) (GACCCTGGTCTGCACTCTATC; listed as DNA, chemistry not fully specified)","phosphorylation of TAK1 and JNK, and cleavage of caspase 3","[1]; EGFPCAG78-expressing cells, miRNA overexpression",suppressed
same,TAB1 expression,[1],most robust gene-silencing effects; also recorded: reduced
same,caspase 3 cleavage,[6],rescued
same,"phosphorylation levels of TAK1, MKK4 and JNK",[6],rescued
same,EGFP-Htt1-550CAG89-induced cell death,[8],rescued
same,mutant CAG RNA (EGFPCAG78)-induced cell death,[11],inhibited in a dose-dependent manner
"miR-10a-5p: miRNA (IDT), SEQ ID NO: 10, predicted to target TAB1 (UACCCUGUAGAUCCGAAUUUGUG; listed as RNA, chemistry not given here)",TAB1 expression,[1],able to silence
same,TAK1-triggered cell death,[1],inhibit
"miR-7-5p: miRNA (IDT), SEQ ID NO: 15, predicted to target TAB2",TAB2 expression,[1],capable of silencing
same,EGFPCAG78-induced TAK1 functional deregulation,[1],inhibiting
